These results are taken from paper doi:10.1101/623967v1 (bioRxiv, 2019).

Common to all, as to type: physicochemical
Series [1] in a line: pKFI determination: tryptophan fluorescence pH titration. The settings on record: lipid:peptide 150:1; for pKFI in the presence of NaCl: 150 mM NaCl, POPC and POPC/POPS (9/1) gave similar pKFI; for effect of 150 mM NaCl on the pKFI: POPC vesicles, compared with no NaCl, result in words.
The nature of series [2]: pKFI determination: tryptophan fluorescence pH titration with PS in the vesicles. The settings on record: for PS50 (amount of PS needed to reach 50% of change in pKFI): hyperbolic fit (Eq. 2) of pKFI versus molar percent POPS, 0-20%.
A short description of series [3]: Tryptophan fluorescence emission spectra at acidic and basic pH. The settings on record: POPC/POPS (9/1), Trp fluorescence, λex 280 nm.
Experiment in series [4]: as above
The settings on record: POPC, Trp fluorescence, λex 280 nm.

The mark [5] stands for this setting: POPC/POPS vesicles, PS 0-20 mol%, lipid:peptide 200:1, 1 μM peptide.

As for “GLAGLAGLLGLEGLLGLPLGLLEGLWLGLELEGN [ATRAM, acidity-triggered rational membrane (ATRAM) peptide]”, the “pKFI in the presence of NaCl” value in series [1] is listed as roughly 5.7. Also, in series [1], the “effect of 150 mM NaCl on the pKFI” value is “decreased”. Besides, the “effect of PS on the pKFI” value in series [2] (POPC/POPS vesicles, seven PS levels between 0-20%, result in words) is given as “not significantly affected”. Moreover, the Fluorescence spectral maxima in series [3] (acidic pH (pH 4)) amounted to 330.8 ± 0.8 nm; in series [3] (basic pH (pH 8)), 350.9 ± 1.0 nm; in series [4] (acidic pH (pH 4)), 327.3 ± 0.7 nm; in series [4] (basic pH (pH 8)), 341.1 ± 2.3 nm.

Regarding “GKAGKAGLLGLEGLLGLPLGLLEGLWLGLELEGN [K2-ATRAM]”, in series [1], the “pKFI in the presence of NaCl” value is recorded as roughly 5.4. Besides, in series [1], the “effect of 150 mM NaCl on the pKFI” value was “no change”. Further, the “increase in the pKFI caused by PS” value in series [2] (setting [5]) was roughly 0.4 pH units. In addition, in series [2], the “PS50 (amount of PS needed to reach 50% of change in pKFI)” value stood at 1.9 % PS. Also, the Fluorescence spectral maxima is given as 320.2 ± 1.7 nm in series [3] (acidic pH (pH 4)), 331.7 ± 1.8 nm in series [3] (basic pH (pH 8)), 329.7 ± 1.2 nm in series [4] (acidic pH (pH 4)) and 342.1 ± 2.1 nm in series [4] (basic pH (pH 8)).

For “GYAGLAGLLGLEGLLGLPLGLLEGLWLGLELEGN [Y-ATRAM]”, the “pKFI in the presence of NaCl” value in series [1] is reported as roughly 5.7. In addition, the “effect of 150 mM NaCl on the pKFI” value in series [1] is on record as “decrease”. The “decrease in the pKFI caused by PS” value in series [2] (setting [5]) is recorded as roughly 0.3 pH units. For the same sequence, the “PS50 (amount of PS needed to reach 50% of change in pKFI)” value in series [2] is given as 0.5 % PS. The Fluorescence spectral maxima is reported as 320.5 ± 1.9 nm in series [3] (acidic pH (pH 4)), 342.7 ± 2.3 nm in series [3] (basic pH (pH 8)), 324.5 ± 2.9 nm in series [4] (acidic pH (pH 4)) and 343.9 ± 3.6 nm in series [4] (basic pH (pH 8)).
